Tested on: common mosquito (Culex pipiens pallens)
Assay: Test Example 2: knock down test, forced contact with treated glass petri dish
Assay type: in vivo
Conditions: 5 minutes after release, ten female adults, 3 min contact
Procedure: Acetone-diluted solutions were prepared so that predetermined dosage of the Guanidine Compound and the ester compound B on glass plates indicated in Table 1 would be applied. The acetone-diluted solutions (0.5 ml) were treated on the underside of glass petri dishes with a diameter of 7 cm uniformly and air-dried. Ten female adults of common mosquito (Culex pipiens pallens) were collected by means of a pocket aspirator and placed into the petri dish, then contacted compulsorily with the treated underside of glass petri dishes by covering with a lucid plate made of polyvinyl chloride.
Three minutes after covering, said common mosquitoes were released in nyron cage (size: 16.5 cm×15.5 cm×22 cm). At a given period of time after releasing, the number of knocked down insects was counted and a knock down rate was calculated.

Compound | Knock down rate (%) after 5 minutes (Guanidine Compound alone 0.000125 mg/plate) [%] | Knock down rate (%) after 5 minutes (Guanidine Compound alone 0.00025 mg/plate) [%] | Knock down rate (%) after 5 minutes (Guanidine Compound alone 0.0005 mg/plate) [%] | Knock down rate (%) after 5 minutes (Guanidine Compound alone 0.00125 mg/plate) [%] | Knock down rate (%) after 5 minutes (ester compound B alone 0.000125 mg/plate) [%] | Knock down rate (%) after 5 minutes (ester compound B alone 0.00025 mg/plate) [%]
CN/C(=N\[N+](=O)[O-])NCc1cnc(Cl)s1 [reference 1, (E)-1-(2-chloro-1,3-thiazol-5-ylmethyl)-3-methyl-2-nitroguanidine] | 10 | 10 | 10 | 20 |  | 
C/C=C\[C@@H]1[C@@H](C(=O)OCc2c(F)c(F)c(COC)c(F)c2F)C1(C)C (relative stereo) [reference 4, 2,3,5,6-tetrafluoro-4-methoxymethylbenzyl=(1R)-trans-3-(1-propenyl(Z))-2,2-dimethylcyclopropanecarboxylate] |  |  |  |  | 10 | 20
